From PMC7689250, “Synthetic Peptide Libraries Designed From a Minimal Alpha-Helical Domain of AS-48-Bacteriocin Homologs Exhibit Potent Antibacterial Activity” (Frontiers in Microbiology, 2020)
Like-named read-outs stand apart in the source and are kept apart here. Residues, ends and D or L forms follow the SMILES beside them.

Experiments:
[1] = test system: E. coli (BL21); format: cell-based, Escherichia coli; conditions: for MBC: BL21
Method in brief: (§1)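 MIC in Mueller-Hinton broth with 1 × 10^6 CFU/mL bacteria, overnight cultures grown first in LB (E. coli, P. aeruginosa, S. aureus) or Todd-Hewitt (S. pyogenes); growth read as OD 600. Library members screened at half the parent peptide MIC; MBC as lowest concentration giving no colonies after plating MIC wells, 37°C overnight.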

[2] = test system: S. aureus (USA300); format: cell-based, Staphylococcus aureus; conditions: for MBC: USA300; for MIC: USA300, 16 h
Method in brief: as §1

[3] = test system: P. aeruginosa (PAO1); format: cell-based, Pseudomonas aeruginosa; conditions: for MBC: PAO1; for MIC: PAO1, 16 h
Method in brief: as §1

[4] = test system: sheep erythrocytes; format: cell-based; conditions: red cells of sheep, 1 h
Description: To determine if peptide variants were hemolytic, fresh defibrinated whole sheep blood (Hardy Diagnostics) was washed three times in cold PBS, and washed blood was diluted 1:25 in PBS. Treatments were applied at a 1:10 ratio of sample:blood, where the sample was either 10% Triton, PBS, or a specific peptide concentration corresponding to concentrations used in the MIC assays. Treatments were incubated with the blood for 1 h at 37°C. Following incubation, samples were centrifuged at […] for 10 min at 4°C, and the absorbance of the supernatants at 450 nm was measured on the Synergy H1 Microplate Reader to measure the release of hemoglobin. Percent hemolysis was quantified by normalizing to the negative and positive controls.

[5] = test system: S. pyogenes (M1); format: cell-based, Streptococcus pyogenes; conditions: for MBC: M1
Method in brief: as §1

Structure (SMILES)	MIC ([1]; BL21, 16 h)	MIC [2]	MIC [3]	MIC ([5]; M1, 16 h)	MIC ([5]; S. pyogenes M1)	MIC ([1]; E. coli BL21)	MBC [1]	MBC [2]	MBC [3]	Percent Hemolysis [4]	MBC [5]
CC[C@H](C)[C@H](NC(=O)[C@H](CCCCN)NC(=O)[C@H](C)NC(=O)[C@H](CCCNC(=N)N)NC(=O)[C@H](CCCCN)NC(=O)CNC(=O)[C@H](CCCCN)NC(=O)[C@H](CCC(=O)O)NC(=O)[C@H](CCC(N)=O)NC(=O)[C@@H](NC(=O)[C@H](CCCCN)NC(=O)[C@H](CCCCN)NC(=O)[C@H](CCCCN)NC(=O)[C@H](CC(C)C)NC(=O)[C@H](CCCNC(=N)N)NC(=O)[C@H](CCC(N)=O)NC(=O)[C@H](Cc1ccccc1)NC(=O)[C@@H](NC(=O)[C@@H](NC(=O)[C@H](CCC(=O)O)NC(=O)[C@H](CCCCN)NC(=O)CNC(=O)[C@H](C)N)[C@@H](C)O)[C@@H](C)CC)[C@@H](C)CC)C(=O)N[C@@H](C)C(=O)N[C@@H](Cc1c[nH]c2ccccc12)C(=O)O [Syn-larvacin-91] (H-AGKETIFQRLKKKIQEKGKRAKIAW-OH; N-terminus and C-terminus assumed)	1 µM	2 µM	32 µM	0.5 µM	–	–	2 µM	2 µM	64 µM	23.4%	0.5 µM
CC[C@H](C)[C@H](NC(=O)[C@H](CCCCN)NC(=O)[C@H](C)NC(=O)[C@H](CCCNC(=N)N)NC(=O)[C@H](CCCCN)NC(=O)[C@H](CCCCN)NC(=O)CNC(=O)[C@H](CCC(=O)O)NC(=O)[C@H](CCC(N)=O)NC(=O)[C@@H](NC(=O)[C@H](CCCCN)NC(=O)[C@H](CCCCN)NC(=O)[C@H](CCCCN)NC(=O)[C@H](CC(C)C)NC(=O)[C@H](Cc1ccccc1)NC(=O)[C@H](CCC(N)=O)NC(=O)[C@H](CCCNC(=N)N)NC(=O)[C@@H](NC(=O)[C@@H](NC(=O)[C@H](CCC(=O)O)NC(=O)[C@H](CCCCN)NC(=O)CNC(=O)[C@H](C)N)[C@@H](C)O)[C@@H](C)CC)[C@@H](C)CC)C(=O)N[C@@H](C)C(=O)N[C@@H](Cc1c[nH]c2ccccc12)C(=O)O [Syn-larvacin-92] (H-AGKETIRQFLKKKIQEGKKRAKIAW-OH; N-terminus and C-terminus assumed)	2 µM	2 µM	64 µM	1 µM	–	–	2 µM	8 µM	128 µM	29.9%	1 µM
CC[C@H](C)[C@H](NC(=O)[C@H](CCC(=O)O)NC(=O)[C@H](CCCNC(=N)N)NC(=O)[C@H](CCCNC(=N)N)NC(=O)[C@H](CC(C)C)NC(=O)[C@H](Cc1ccc(O)cc1)NC(=O)[C@H](CCCCN)NC(=O)[C@H](C)NC(=O)[C@@H](NC(=O)[C@@H](NC(=O)[C@H](CCC(N)=O)NC(=O)[C@H](CCCNC(=N)N)NC(=O)[C@H](Cc1c[nH]c2ccccc12)NC(=O)[C@H](C)N)[C@@H](C)O)[C@@H](C)CC)C(=O)N[C@@H](CCCNC(=N)N)C(=O)N[C@@H](CCCCN)C(=O)N[C@@H](CCCNC(=N)N)C(=O)NCC(=O)N[C@@H](CCCNC(=N)N)C(=O)N[C@@H](CCCCN)C(=O)N[C@@H](C)C(=O)N[C@H](C(=O)N[C@H](C(=O)N[C@@H](C)C(=O)N[C@@H](Cc1c[nH]c2ccccc12)C(=O)O)[C@@H](C)CC)C(C)C [Syn-sordellicin-18] (H-AWRQTIAKYLRREIRKRGRKAVIAW-OH; N-terminus and C-terminus assumed)	1 µM	32 µM	4 µM	4 µM	–	–	1 µM	32 µM	8 µM	14.1%	4 µM
CC[C@H](C)[C@H](NC(=O)[C@H](CCCNC(=N)N)NC(=O)[C@H](CC(N)=O)NC(=O)[C@@H](NC(=O)CNC(=O)[C@H](C)N)[C@@H](C)O)C(=O)N[C@@H](C)C(=O)N[C@@H](CCCCN)C(=O)N[C@@H](CCC(=O)O)C(=O)N[C@@H](CC(C)C)C(=O)N[C@@H](CCCNC(=N)N)C(=O)N[C@@H](CCCNC(=N)N)C(=O)N[C@@H](Cc1ccc(O)cc1)C(=O)N[C@H](C(=O)N[C@@H](CCCNC(=N)N)C(=O)N[C@@H](CCCCN)C(=O)N[C@H](C(=O)NCC(=O)N[C@@H](CCCNC(=N)N)C(=O)N[C@H](C(=O)N[C@@H](CCCCN)C(=O)N[C@@H](CCCNC(=N)N)C(=O)N[C@@H](CCCCN)C(=O)N[C@@H](C)C(=O)N[C@@H](Cc1c[nH]c2ccccc12)C(=O)O)[C@@H](C)CC)C(C)C)[C@@H](C)CC [Syn-sordellicin-80] (H-AGTNRIAKELRRYIRKVGRIKRKAW-OH; N-terminus and C-terminus assumed)	–	64 µM	16 µM	2 µM	–	0.25 µM	0.5 µM	64 µM	16 µM	11.3%	2 µM

Further lines, with some results ahead:

MIC ([1]; BL21, 16 h)	MIC [2]	MIC [3]	MIC ([5]; M1, 16 h)	MIC ([5]; S. pyogenes M1)	MIC ([1]; E. coli BL21)	Structure (SMILES)	MBC [1]	MBC [2]	MBC [3]	Percent Hemolysis [4]	MBC [5]
2 µM	>128 µM	8 µM	–	0.5 µM	–	CC[C@H](C)[C@H](NC(=O)[C@H](CCCNC(=N)N)NC(=O)[C@H](CCC(N)=O)NC(=O)[C@@H](NC(=O)CNC(=O)[C@@H](N)Cc1c[nH]c2ccccc12)[C@@H](C)O)C(=O)N[C@@H](CCCCN)C(=O)N[C@@H](C)C(=O)N[C@@H](Cc1ccc(O)cc1)C(=O)N[C@@H](CC(C)C)C(=O)N[C@@H](CCCNC(=N)N)C(=O)N[C@@H](CCCNC(=N)N)C(=O)N[C@@H](CCC(=O)O)C(=O)N[C@H](C(=O)N[C@@H](CCCNC(=N)N)C(=O)N[C@@H](CCCCN)C(=O)N[C@@H](CCCNC(=N)N)C(=O)NCC(=O)N[C@@H](CCCNC(=N)N)C(=O)N[C@@H](CCCCN)C(=O)N[C@@H](C)C(=O)N[C@H](C(=O)N[C@H](C(=O)N[C@@H](C)C(=O)N[C@@H](Cc1c[nH]c2ccccc12)C(=O)O)[C@@H](C)CC)C(C)C)[C@@H](C)CC [Syn-sordellicin-11] (H-WGTQRIKAYLRREIRKRGRKAVIAW-OH; N-terminus and C-terminus assumed)	2 µM	>128 µM	8 µM	21.3%	0.5 µM
2 µM	>128 µM	16 µM	2 µM	–	–	CC[C@H](C)[C@H](NC(=O)[C@H](Cc1c[nH]c2ccccc12)NC(=O)[C@H](CCC(N)=O)NC(=O)[C@H](CCCNC(=N)N)NC(=O)CNC(=O)[C@H](C)N)C(=O)N[C@@H](CCCCN)C(=O)N[C@@H](C)C(=O)N[C@@H](Cc1ccc(O)cc1)C(=O)N[C@@H](CC(C)C)C(=O)N[C@@H](CCCNC(=N)N)C(=O)N[C@@H](CCCNC(=N)N)C(=O)N[C@@H](CCC(=O)O)C(=O)N[C@H](C(=O)N[C@@H](CCCNC(=N)N)C(=O)N[C@@H](CCCCN)C(=O)N[C@@H](CCCNC(=N)N)C(=O)NCC(=O)N[C@@H](CCCNC(=N)N)C(=O)N[C@@H](CCCCN)C(=O)N[C@@H](C)C(=O)N[C@H](C(=O)N[C@H](C(=O)N[C@@H](C)C(=O)N[C@@H](Cc1c[nH]c2ccccc12)C(=O)O)[C@@H](C)CC)C(C)C)[C@@H](C)CC [Syn-sordellicin-41] (H-AGRQWIKAYLRREIRKRGRKAVIAW-OH; N-terminus and C-terminus assumed)	2 µM	>128 µM	16 µM	15.5%	4 µM
1 µM	>128 µM	8 µM	2 µM	–	–	CC[C@H](C)[C@H](NC(=O)[C@H](CCC(=O)O)NC(=O)[C@H](CCCNC(=N)N)NC(=O)[C@H](CCCNC(=N)N)NC(=O)[C@H](CC(C)C)NC(=O)[C@H](Cc1ccc(O)cc1)NC(=O)[C@H](CCCCN)NC(=O)[C@H](C)NC(=O)[C@@H](NC(=O)[C@@H](NC(=O)[C@H](CCC(N)=O)NC(=O)[C@H](CCCNC(=N)N)NC(=O)CNC(=O)[C@H](C)N)[C@@H](C)O)[C@@H](C)CC)C(=O)N[C@@H](CCCNC(=N)N)C(=O)N[C@@H](CCCCN)C(=O)N[C@@H](CCCNC(=N)N)C(=O)NCC(=O)N[C@@H](CCCNC(=N)N)C(=O)N[C@@H](CCCCN)C(=O)N[C@@H](Cc1c[nH]c2ccccc12)C(=O)N[C@H](C(=O)N[C@H](C(=O)N[C@@H](C)C(=O)N[C@@H](Cc1c[nH]c2ccccc12)C(=O)O)[C@@H](C)CC)C(C)C [Syn-sordellicin-50] (H-AGRQTIAKYLRREIRKRGRKWVIAW-OH; N-terminus and C-terminus assumed)	1 µM	>128 µM	16 µM	11.5%	2 µM
